Measurements as given in the NIST ThermoML archive (doi:10.1016/j.jct.2015.07.047).

Settings: Liquid, Closed cell (Static) method

Cl[SiH2]Cl [dichlorosilane]
Settings	vapor or sublimation pressure [kPa]
313.36 K	290.6
323.35 K	384.1
333.19 K	496.6
343.04 K	631.7
352.98 K	793.4
362.94 K	982.4

Cl[Si](Cl)(Cl)Cl [silicon tetrachloride]
Settings	vapor or sublimation pressure [kPa]
318.27 K	66.7
328.25 K	94
338.31 K	129.8
348.08 K	172.9
358.17 K	228.4
368.17 K	295.3

Cl[SiH](Cl)Cl [trichlorosilane]
Settings	vapor or sublimation pressure [kPa]
313.34 K	134.1
323.33 K	183.5
333.17 K	245
343 K	321
352.96 K	414.5
362.96 K	528.8
